Assay results from patent publication US6689762B1, “Composition and methods for treatment of HIV infection” (Enzon Pharmaceuticals, Inc., priority 1998, dated 2004).
Values joined by “and” are separate entries in the source; they are usually repeats but may differ in a detail not shown here. Equal values may be shown once.

What was measured:
[1] = tested on: HIV-RT levels of HIV-1 infected CEM/0 cell pellets; test: HIV-RT ELISA (Reverse Transcriptase Assay, non-radioactive) in cell pellets of HIV-1 infected CEM/0 T-cells; type: cell-based; settings: Table 9
From the text: The following is a general procedure for the HIV-reverse transcriptase assay:
The cell line used for these studies is CCRF/CEM/O, a human T-leukemic cell line. PEG-ASNase (ONCASPAR) is provided by Rhone-Poulenc Rorer. Saquinavir is commercially available. RPMI-1640 media (Irvine Scientific, Irvine, Calif.) is enriched with 10% Fetal Calf Serum (Gemini Biosource, Calabasas, Calif.), 5% 1M Hepes Buffer solution and 5% Non-essential amino acids (Irvine Scientific, Irvine, Calif.). The drug concentrations used are as follows:
Briefly, 2×10^6 cells/ml are stimulated with PHA+ media for 48 hours at 37° C. with 5% CO2. Also, the same number of cells are incubated in PHA(phytohemagglutinin) free media for 48 hours to serve as the negative control. At this point the cells are inoculated with the HIV-1 virus as per standard protocol. PEG-ASNase and/or Saquinavir are added to the cells in the appropriate concentrations (see above). The control cells are resuspended in drug-free media for the duration of the exposure which lasted seven days. At day five, two 1 ml aliquots of media are removed from the flasks and stored under liquid nitrogen. At day seven, two more 1 ml aliquots of media are removed from the flasks and stored under liquid nitrogen. In addition, the remaining cells are pelleted and stored at −80° C.
The samples produced from this experiment are itemized and then assayed for HIV-RT using the Reverse Transcriptase Assay, non-radioactive (Boehringer Mannheim). The standard curve is determined and the HIV-RT levels for the experimental samples are calculated.
This experiment is carried out using a similar procedure, and the same concentrations of materials as in Experiment 7, however the exposure of the HIV virus in T-cell pellets to PEG-ASNase and Saquinavir alone, and in combination is measured. It should be noted that “PEG” in Table 2a represents PEG-ASNase. […]

[2] = tested on: HIV-RNA in supernatant of HIV-1 infected CEM/0 T-cells; test: HIV-1 quantitative RNA assay (HIV-1 Monitor) in supernatants of CEM/0 T-cells; type: cell-based; parameters: inhibition of HIV-RNA in the supernatants in comparison to untreated control / % OF CONTROL / % control: concentration or dose not given beside the values
From the text: It should be noted that “PEG” in Table 3 represents PEG-ASNase.
Materials and Methods: The cell line used for these studies is CEM/0, a human T-cell leukemic cell line. PEG-ASNase (ONCASPAR) is provided by Rhone-Poulenc Rorer. Saquinavin is commercially available. AZT is purchased from Sigma. MISID, a ribonucleotide reductase inhibitor, is as described in Nandy P, Lien E J, Avramis V I, Med. Chem. Res. 1995, 5:664-679. RPMI-1640 media (Irvine Scientific, Irvine, Calif.), is enriched with 10% Fetal Calf Serum (Gemini Biosource, Calabasas, Calif.), 5% 1M Hepes Buffer solution and 5% Non-essential amino acids (Irvine Scientific, Irvine, Calif.). The drug concentrations used are as follows:
Briefly, 3×10^6 cells/ml are stimulated with PHA+ media for 48 hours at 37° C. with 5% CO2. Also, the same number of cells are incubated in PHA free media for 48 hours to serve as the negative control. At this point the cells are inoculated with the HIV-1 virus as per standard protocol. Note that in this experiment, the HIV containing supernatant from the PHA-stimulated healthy human peripheral mononuclear cells (PBMC) is not removed from the PHA-stimulated CEM/0 cell culture. […] These virus particles are continuously released by already infected T-cells and/or lymph nodes of patients.
The experimental drugs are added to the cells in the appropriate concentrations at the same time as viral inoculation or 90 minutes after the viral incubation, a time sufficient for the T-cells to be infected and start producing new HIV-1 virus particles. The control cells are resuspended in drug-free media for the duration of the exposure which lasted seven days. Aliquots of media from the control flasks only are obtained on day 5 post Rx. At day seven, three 1 ml each, aliquots of media are removed from the flasks and stored under liquid nitrogen. In addition, the remaining cells are split into three and then pelleted and stored at −80° C. Supernatant specimens are obtained form these T-cell cultures and are frozen at −80° C. The samples produced from this experiment are itemized. The cell pellets of the cellular cultures (see Experiment 9) from the 90 minute viral incubation flasks are assayed for HIV-RNA quantitative assay using a kit for the assay, non-radioactive. […] The standard curve is determined and the HIV-RNA levels for the experimental samples are calculated and reported previously.
This experiment is carried out using a similar procedure, and the same concentrations of materials as in Experiment 10, however the exposure of HIV-RNA in T-cell supernatants to a combination of PEG-ASNase, Saquinavir, AZT and 3TC is measured. It should be noted that “PEG” in Table 10 represents PEG-ASNase.

SMILES: Nc1ccn([C@@H]2CS[C@H](CO)O2)c(=O)n1 [3TC, lamivudine]
- MEAN X3 (HIV-RT) [1]: 0.004 ng/well
- MEAN ([2]; Table 10): 1752 copies/mL
- N* ([2]; Table 10, per specimen, day 7 post Rx, PEG 0.400 IU/ml, SAQ 25 uM, AZT 1 uM, 3TC 1 uM, combinations PEG 0.233 IU/ml + SAQ 14.52 uM): 1700 copies/mL and 1836 copies/mL and 1719 copies/mL
- % OF CONTROL ([2]; Table 10 and Experiment 11): 39.58%
